Data reported in patent publication US20250160366A1, “MEANS AND METHODS FOR MODULATING SECONDARY METABOLITE IN AN ANIMAL” (DSM IP Assets B.V., priority 2022, published 2025).

How the values were obtained:
[1] = OP at 1000 mg/kg feed, positive control 30 g GABA per ton of feed
[2] = in mice; cited from earlier work
[3] = GABA supplementation at 30 g/MT; Li et al. 2015, Bi et al. 2020; cited from earlier work

## NCCCC(=O)O [GABA, Gamma-aminobutyric acid]
[1]
  fold change (compared to day 0) of plasma COR as stress indicator: 0.70
  fold change (compared to day 0) of plasma NPY as stress-resistance indicator: 0.51
[1]; day 12
  plasma GABA fold change compared to day 0: 1.07
[2]
  half-life of GABA in the body: less than 17 min
[3]
  biting incidences: lower
  growth performance: increase
  stress-related parameters: improve
